Source: article PMC9147192, “Small Molecule Arranged Thermal Proximity Coaggregation (smarTPCA)—A Novel Approach to Characterize Protein–Protein Interactions in Living Cells by Similar Isothermal Dose–Responses” (International Journal of Molecular Sciences, 2022)
Where two headings read alike, the source gives them in different places.

Key:
MARS = MARS (Homo sapiens, UniProt P56192); test: TPP-CCR in living HL-60 cells
STX4 = STX4 (Homo sapiens, UniProt Q12846); test: TPP-CCR in living HL-60 cells
Sequence of STX4 (Q12846 whole entry): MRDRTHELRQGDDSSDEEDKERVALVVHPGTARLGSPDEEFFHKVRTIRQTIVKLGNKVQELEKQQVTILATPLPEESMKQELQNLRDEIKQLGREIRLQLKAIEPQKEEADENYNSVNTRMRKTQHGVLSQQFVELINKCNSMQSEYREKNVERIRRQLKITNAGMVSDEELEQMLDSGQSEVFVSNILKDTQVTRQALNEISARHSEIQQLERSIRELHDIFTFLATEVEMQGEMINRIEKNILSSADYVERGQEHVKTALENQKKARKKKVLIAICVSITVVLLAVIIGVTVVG

MAPK14 [1] = biological target: MAPK14 (Homo sapiens, UniProt Q16539); test: TPP-CCR in living HL-60 cells; details: […] °C, TMT-MS
Sequence of MAPK14 (Homo sapiens, UniProt Q16539) (Q16539 whole entry): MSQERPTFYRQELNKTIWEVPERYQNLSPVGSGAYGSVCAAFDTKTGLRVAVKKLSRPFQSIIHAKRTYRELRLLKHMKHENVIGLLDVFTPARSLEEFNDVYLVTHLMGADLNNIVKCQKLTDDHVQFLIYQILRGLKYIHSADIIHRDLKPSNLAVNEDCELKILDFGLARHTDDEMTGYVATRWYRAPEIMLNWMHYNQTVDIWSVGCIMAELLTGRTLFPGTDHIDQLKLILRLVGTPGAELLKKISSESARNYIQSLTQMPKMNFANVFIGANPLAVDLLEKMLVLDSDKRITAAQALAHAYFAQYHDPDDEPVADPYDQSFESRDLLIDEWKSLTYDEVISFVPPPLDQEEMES

MAPK14 [2] = tested on: MAPK14; parameters: method as in Seashore-Ludlow et al., Biochemistry 2018; details: MAPK14 only, ref Seashore-Ludlow et al., Biochemistry 2018, cited from earlier work
MAPK14 [3] = tested on: MAPK14; parameters: method as in Seashore-Ludlow et al., Biochemistry 2018; details: MAPK14 only, extrapolated to 50°C and extracted from figure 3b; ref Seashore-Ludlow et al., Biochemistry 2018; cited from earlier work
MAPK3 = biological target: T1, MAPK3 (Homo sapiens, UniProt P27361); test: TPP-CCR in living HL-60 cells; format: cell-based
T1 construct: endogenous in cells; host or cells: HL-60 (ATCC CCL-240)
T1 sequence (P27361 whole entry): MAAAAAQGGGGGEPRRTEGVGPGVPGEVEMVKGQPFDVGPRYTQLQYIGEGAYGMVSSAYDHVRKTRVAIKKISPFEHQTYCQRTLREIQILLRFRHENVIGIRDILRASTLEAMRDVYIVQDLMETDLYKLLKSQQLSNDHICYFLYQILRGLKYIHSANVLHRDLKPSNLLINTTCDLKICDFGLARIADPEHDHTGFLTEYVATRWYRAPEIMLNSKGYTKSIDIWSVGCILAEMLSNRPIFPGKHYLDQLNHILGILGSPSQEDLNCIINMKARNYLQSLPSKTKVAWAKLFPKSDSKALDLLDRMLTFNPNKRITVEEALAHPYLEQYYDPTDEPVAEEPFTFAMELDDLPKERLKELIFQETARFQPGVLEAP
Text: (§1) Therefore, we performed TPP with compound concentration range (TPP-CCR) experiments according to published procedures. In brief, after preparing tryptic peptides from the non-denatured protein fractions (used for immunoblotting in the previous sections) applying the SP3 method, the peptides were labeled using TMT10plex, coding for inhibitor concentration, and the samples belonging to a TMT set were combined, offline high-pH fractionated, and analyzed by MS.
(§2) HL-60 cells were expanded as described above for CETSA and TPP-TR to 1.25 million cells per milliliter. […] A number of 2.5 million cells in 2 mL of medium were added to each tube and incubated (1 h, 37 °C). […]
(§3) For each sample set comprising ten compound concentration range samples, a same volume of the cell extracts containing the fraction of soluble, non-denatured proteins, corresponding to an average of 5 µg total protein, was used for further analysis. The calculated volume was respectively transferred into PCR tubes of a tube strip and supplemented with SDS sample buffer without DTT and bromophenol blue (final concentrations: 7.5% glycerol, 3% SDS, 37.5 mM Tris/HCl pH 7.0) and ddH2O to a final volume of 10 µL, respectively. […]

C14orf166 = C14orf166 (Homo sapiens, UniProt Q9Y224); details: living HL-60 cells, […] °C, TMT-MS
Sequence of C14orf166 (Q9Y224 whole entry): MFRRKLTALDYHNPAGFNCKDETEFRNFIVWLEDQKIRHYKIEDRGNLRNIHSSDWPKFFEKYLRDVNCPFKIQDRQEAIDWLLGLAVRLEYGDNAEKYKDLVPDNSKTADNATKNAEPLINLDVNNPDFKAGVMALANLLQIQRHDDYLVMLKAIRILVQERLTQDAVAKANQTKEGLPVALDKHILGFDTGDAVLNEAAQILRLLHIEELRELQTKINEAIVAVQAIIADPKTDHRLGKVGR
Text: as §1, §2, §3

[4] = living HL-60 cells, […] °C, TMT-MS

Sequence of MARS (P56192 whole entry): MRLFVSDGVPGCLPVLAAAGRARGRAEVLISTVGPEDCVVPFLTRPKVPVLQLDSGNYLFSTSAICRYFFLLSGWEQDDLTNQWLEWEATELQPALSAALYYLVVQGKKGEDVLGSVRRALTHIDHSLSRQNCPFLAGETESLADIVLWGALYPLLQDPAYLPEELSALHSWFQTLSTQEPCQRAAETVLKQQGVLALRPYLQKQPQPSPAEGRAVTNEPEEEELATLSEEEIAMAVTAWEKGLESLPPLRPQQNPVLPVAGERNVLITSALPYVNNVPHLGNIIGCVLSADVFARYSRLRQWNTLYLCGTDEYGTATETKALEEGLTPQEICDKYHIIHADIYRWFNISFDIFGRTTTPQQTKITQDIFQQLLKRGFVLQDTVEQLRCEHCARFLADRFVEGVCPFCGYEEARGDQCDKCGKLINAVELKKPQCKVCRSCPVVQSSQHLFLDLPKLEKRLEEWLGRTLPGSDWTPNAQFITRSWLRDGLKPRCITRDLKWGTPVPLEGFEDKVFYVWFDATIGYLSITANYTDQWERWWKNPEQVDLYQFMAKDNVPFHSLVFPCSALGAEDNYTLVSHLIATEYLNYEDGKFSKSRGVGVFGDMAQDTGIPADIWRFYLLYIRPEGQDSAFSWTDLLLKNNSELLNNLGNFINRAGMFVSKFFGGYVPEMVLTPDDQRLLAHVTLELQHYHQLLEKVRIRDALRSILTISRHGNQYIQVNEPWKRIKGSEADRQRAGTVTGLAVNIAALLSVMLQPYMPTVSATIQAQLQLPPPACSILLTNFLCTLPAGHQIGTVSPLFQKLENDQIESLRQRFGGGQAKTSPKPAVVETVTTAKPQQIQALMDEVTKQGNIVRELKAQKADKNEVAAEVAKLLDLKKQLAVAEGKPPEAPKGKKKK

Compound: Cn1c(NC[C@@H](N)Cc2ccccc2)nc(-c2ccncc2)c(-c2ccc3ccccc3c2)c1=O [AMG-548]
- EC50 (MARS): 209 nM
- Hill slope (MARS) (MARS; [4]): 0.40
- EC50 (STX4): 132 nM
- Hill slope (STX4) (STX4; [4]): 0.27
- Hill slope (MAPK14) (MAPK14 [1]): 0.57
- pEC50, Living cells (MAPK14 [2]; extrapolated to 50°C and extracted from figure 3b): 8.57
- pEC50, Living cells (MAPK14 [2]; extrapolated to […]°C and extracted from figure 3b): 8.23
- pEC50, Cell extract (MAPK14 [3]): 8.14

Compound: Cc1cnc(Nc2ccc(F)cc2Cl)nc1-c1c[nH]c(C(=O)N[C@H](CO)c2cccc(Cl)c2)c1 [ERK 11e]
- Hill slope (MAPK3; TPP-CCR, living cells, MAPK3): 0.59
- Hill slope (MAPK3) (MAPK3; [4]): 0.59

Compound: C[S+]([O-])c1ccc(-c2nc(-c3ccncc3)c(-c3ccc(F)cc3)[nH]2)cc1 (centres unmarked) [SB203580]
- Hill slope (C14orf166) (C14orf166): 0.33
